{"source": "PubChem BioAssay (NCI)", "assay_in_all_cases": "NCI anticancer screen, dose series, 48 h", "key": {"[1]": {"test_system": "SF-268 CNS"}, "[2]": {"test_system": "K-562 leukemia"}, "[3]": {"test_system": "DMS 273 small cell lung"}, "[4]": {"test_system": "A549 NSCLC"}, "[5]": {"test_system": "SF-295 CNS"}, "[6]": {"test_system": "NCI-H23 lung"}, "[7]": {"test_system": "LXFL 529 NSCLC"}, "[8]": {"test_system": "COLO 205 colon"}, "[9]": {"test_system": "M19-MEL melanoma"}, "[10]": {"test_system": "IGROV1 ovarian"}, "[11]": {"test_system": "TK-10 renal"}, "[12]": {"test_system": "SF-539 CNS"}, "[13]": {"test_system": "SK-MEL-28 melanoma"}, "[14]": {"test_system": "SNB-78 CNS"}, "[15]": {"test_system": "UACC-62 melanoma"}, "[16]": {"test_system": "SK-MEL-2 melanoma"}, "[17]": {"test_system": "KM20L2 colon"}, "[18]": {"test_system": "786-0 renal"}, "[19]": {"test_system": "SNB-75 CNS"}, "[20]": {"test_system": "UACC-257 melanoma"}, "[21]": {"test_system": "SN12C renal"}, "[22]": {"test_system": "SW-620 colon"}, "[23]": {"test_system": "RPMI-8226 leukemia"}, "[24]": {"test_system": "MOLT-4 leukemia"}, "[25]": {"test_system": "SR leukemia"}, "[26]": {"test_system": "HT29 colon"}, "[27]": {"test_system": "MALME-3M melanoma"}, "[28]": {"test_system": "NCI-H226 lung"}, "[29]": {"test_system": "DMS 114 small cell lung"}, "[30]": {"test_system": "SK-MEL-5 melanoma"}, "[31]": {"test_system": "OVCAR-8 ovarian"}, "[32]": {"test_system": "SNB-19 CNS"}, "[33]": {"test_system": "HCT-15 colon"}, "[34]": {"test_system": "EKVX NSCLC"}, "[35]": {"test_system": "U251 CNS"}, "[36]": {"test_system": "RXF 393 renal"}, "[37]": {"test_system": "OVCAR-5 ovarian"}, "[38]": {"test_system": "HCT-116 colon"}, "[39]": {"test_system": "UO-31 renal"}, "[40]": {"test_system": "ACHN renal"}, "[41]": {"test_system": "SK-OV-3 ovarian"}, "[42]": {"test_system": "HCC-2998 colon"}, "[43]": {"test_system": "KM12 colon"}, "[44]": {"test_system": "HL-60(TB) leukemia"}, "[45]": {"test_system": "HOP-92 NSCLC"}, "[46]": {"test_system": "LOX IMVI melanoma"}, "[47]": {"test_system": "DLD-1 colon"}, "[48]": {"test_system": "OVCAR-3 ovarian"}, "[49]": {"test_system": "NCI-H460 lung"}, "[50]": {"test_system": "M14 melanoma"}, "[51]": {"test_system": "OVCAR-4 ovarian"}, "[52]": {"test_system": "A498 renal"}, "[53]": {"test_system": "NCI-H522 lung"}, "[54]": {"test_system": "CCRF-CEM leukemia"}}, "note": "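Dose response: 5 concentrations. Exposure: 48 h. Format: 96-well plates. Endpoint: linear interpolation; highest concentration if not reached. TGI: total growth inhibition.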", "data": [{"smiles": "Cn1c(=O)c2ccccc2c2nc3ccccc3nc21", "values": [{"measurement": "TGI", "setting": "[1]", "result": "> 100", "unit": "µM"}, {"measurement": "TGI", "setting": "[2]", "result": "> 100", "unit": "µM"}, {"measurement": "TGI", "setting": "[3]", "result": "> 100", "unit": "µM"}, {"measurement": "TGI", "setting": "[4]", "result": "> 100", "unit": "µM"}, {"measurement": "TGI", "setting": "[5]", "result": "> 100", "unit": "µM"}, {"measurement": "TGI", "setting": "[6]", "result": "> 100", "unit": "µM"}, {"measurement": "TGI", "setting": "[7]", "result": "> 100", "unit": "µM"}, {"measurement": "TGI", "setting": "[8]", "result": "> 100", "unit": "µM"}, {"measurement": "TGI", "setting": "[9]", "result": "> 100", "unit": "µM"}, {"measurement": "TGI", "setting": "[10]", "result": "> 100", "unit": "µM"}, {"measurement": "TGI", "setting": "[11]", "result": "> 100", "unit": "µM"}, {"measurement": "TGI", "setting": "[12]", "result": "> 100", "unit": "µM"}, {"measurement": "TGI", "setting": "[13]", "result": "> 100", "unit": "µM"}, {"measurement": "TGI", "setting": "[14]", "result": "> 100", "unit": "µM"}, {"measurement": "TGI", "setting": "[15]", "result": "> 100", "unit": "µM"}, {"measurement": "TGI", "setting": "[16]", "result": "> 100", "unit": "µM"}, {"measurement": "TGI", "setting": "[17]", "result": "> 100", "unit": "µM"}, {"measurement": "TGI", "setting": "[18]", "result": "> 100", "unit": "µM"}, {"measurement": "TGI", "setting": "[19]", "result": 58.9, "unit": "µM"}, {"measurement": "TGI", "setting": "[20]", "result": "> 100", "unit": "µM"}, {"measurement": "TGI", "setting": "[21]", "result": "> 100", "unit": "µM"}, {"measurement": "TGI", "setting": "[22]", "result": "> 100", "unit": "µM"}, {"measurement": "TGI", "setting": "[23]", "result": "> 100", "unit": "µM"}, {"measurement": "TGI", "setting": "[24]", "result": "> 100", "unit": "µM"}, {"measurement": "TGI", "setting": "[25]", "result": "> 100", "unit": "µM"}, {"measurement": "TGI", "setting": "[26]", "result": "> 100", "unit": "µM"}, {"measurement": "TGI", "setting": "[27]", "result": "> 100", "unit": "µM"}, {"measurement": "TGI", "setting": "[28]", "result": "> 100", "unit": "µM"}, {"measurement": "TGI", "setting": "[29]", "result": "> 100", "unit": "µM"}, {"measurement": "TGI", "setting": "[30]", "result": "> 100", "unit": "µM"}, {"measurement": "TGI", "setting": "[31]", "result": "> 100", "unit": "µM"}, {"measurement": "TGI", "setting": "[32]", "result": "> 100", "unit": "µM"}, {"measurement": "TGI", "setting": "[33]", "result": "> 100", "unit": "µM"}, {"measurement": "TGI", "setting": "[34]", "result": "> 100", "unit": "µM"}, {"measurement": "TGI", "setting": "[35]", "result": "> 100", "unit": "µM"}, {"measurement": "TGI", "setting": "[36]", "result": "> 100", "unit": "µM"}, {"measurement": "TGI", "setting": "[37]", "result": "> 100", "unit": "µM"}, {"measurement": "TGI", "setting": "[38]", "result": "> 100", "unit": "µM"}, {"measurement": "TGI", "setting": "[39]", "result": "> 100", "unit": "µM"}, {"measurement": "TGI", "setting": "[40]", "result": "> 100", "unit": "µM"}, {"measurement": "TGI", "setting": "[41]", "result": "> 100", "unit": "µM"}, {"measurement": "TGI", "setting": "[42]", "result": "> 100", "unit": "µM"}, {"measurement": "TGI", "setting": "[43]", "result": "> 100", "unit": "µM"}]}, {"smiles": "O=c1[nH]c(=O)n(C2OC(CO)C(N(O)Cc3ccc(F)cc3)C2O)cc1Br", "note": "(stereo not drawn)", "values": [{"measurement": "TGI", "setting": "[1]", "result": "> 100", "unit": "µM"}, {"measurement": "TGI", "setting": "[2]", "result": "> 100", "unit": "µM"}, {"measurement": "TGI", "setting": "[3]", "result": "> 100", "unit": "µM"}, {"measurement": "TGI", "setting": "[44]", "result": "> 100", "unit": "µM"}, {"measurement": "TGI", "setting": "[45]", "result": "> 100", "unit": "µM"}, {"measurement": "TGI", "setting": "[4]", "result": "> 100", "unit": "µM"}, {"measurement": "TGI", "setting": "[46]", "result": "> 100", "unit": "µM"}, {"measurement": "TGI", "setting": "[5]", "result": "> 100", "unit": "µM"}, {"measurement": "TGI", "setting": "[47]", "result": "> 100", "unit": "µM"}, {"measurement": "TGI", "setting": "[6]", "result": "> 100", "unit": "µM"}, {"measurement": "TGI", "setting": "[7]", "result": "> 100", "unit": "µM"}, {"measurement": "TGI", "setting": "[8]", "result": "> 100", "unit": "µM"}, {"measurement": "TGI", "setting": "[9]", "result": "> 100", "unit": "µM"}, {"measurement": "TGI", "setting": "[48]", "result": "> 100", "unit": "µM"}, {"measurement": "TGI", "setting": "[10]", "result": "> 100", "unit": "µM"}, {"measurement": "TGI", "setting": "[49]", "result": "> 100", "unit": "µM"}, {"measurement": "TGI", "setting": "[50]", "result": "> 100", "unit": "µM"}, {"measurement": "TGI", "setting": "[11]", "result": "> 100", "unit": "µM"}, {"measurement": "TGI", "setting": "[12]", "result": "> 100", "unit": "µM"}, {"measurement": "TGI", "setting": "[13]", "result": "> 100", "unit": "µM"}, {"measurement": "TGI", "setting": "[14]", "result": "> 100", "unit": "µM"}, {"measurement": "TGI", "setting": "[15]", "result": "> 100", "unit": "µM"}, {"measurement": "TGI", "setting": "[51]", "result": "> 100", "unit": "µM"}, {"measurement": "TGI", "setting": "[17]", "result": "> 100", "unit": "µM"}, {"measurement": "TGI", "setting": "[18]", "result": "> 100", "unit": "µM"}, {"measurement": "TGI", "setting": "[19]", "result": "> 100", "unit": "µM"}, {"measurement": "TGI", "setting": "[52]", "result": "> 100", "unit": "µM"}, {"measurement": "TGI", "setting": "[20]", "result": "> 100", "unit": "µM"}, {"measurement": "TGI", "setting": "[21]", "result": "> 100", "unit": "µM"}, {"measurement": "TGI", "setting": "[22]", "result": "> 100", "unit": "µM"}, {"measurement": "TGI", "setting": "[23]", "result": "> 100", "unit": "µM"}, {"measurement": "TGI", "setting": "[24]", "result": "> 100", "unit": "µM"}, {"measurement": "TGI", "setting": "[25]", "result": "> 100", "unit": "µM"}, {"measurement": "TGI", "setting": "[26]", "result": "> 100", "unit": "µM"}, {"measurement": "TGI", "setting": "[29]", "result": "> 100", "unit": "µM"}, {"measurement": "TGI", "setting": "[30]", "result": "> 100", "unit": "µM"}, {"measurement": "TGI", "setting": "[53]", "result": "> 100", "unit": "µM"}, {"measurement": "TGI", "setting": "[31]", "result": "> 100", "unit": "µM"}, {"measurement": "TGI", "setting": "[32]", "result": "> 100", "unit": "µM"}, {"measurement": "TGI", "setting": "[34]", "result": "> 100", "unit": "µM"}, {"measurement": "TGI", "setting": "[35]", "result": "> 100", "unit": "µM"}, {"measurement": "TGI", "setting": "[36]", "result": "> 100", "unit": "µM"}, {"measurement": "TGI", "setting": "[37]", "result": "> 100", "unit": "µM"}, {"measurement": "TGI", "setting": "[38]", "result": "> 100", "unit": "µM"}, {"measurement": "TGI", "setting": "[39]", "result": "> 100", "unit": "µM"}, {"measurement": "TGI", "setting": "[54]", "result": "> 100", "unit": "µM"}, {"measurement": "TGI", "setting": "[40]", "result": "> 100", "unit": "µM"}, {"measurement": "TGI", "setting": "[41]", "result": "> 100", "unit": "µM"}, {"measurement": "TGI", "setting": "[42]", "result": "> 100", "unit": "µM"}, {"measurement": "TGI", "setting": "[43]", "result": "> 100", "unit": "µM"}]}]}
